We go through 30 compounds from US12673961B2 (Agios Pharmaceuticals, Inc., priority 2022, dated 2026).

For one experiment, the target named is T1, human PAH with the R408W mutation (Homo sapiens, UniProt P00439, R408W).
T1 construct: expressed in transfected cells
T1 sequence (P00439 1-452 R408W): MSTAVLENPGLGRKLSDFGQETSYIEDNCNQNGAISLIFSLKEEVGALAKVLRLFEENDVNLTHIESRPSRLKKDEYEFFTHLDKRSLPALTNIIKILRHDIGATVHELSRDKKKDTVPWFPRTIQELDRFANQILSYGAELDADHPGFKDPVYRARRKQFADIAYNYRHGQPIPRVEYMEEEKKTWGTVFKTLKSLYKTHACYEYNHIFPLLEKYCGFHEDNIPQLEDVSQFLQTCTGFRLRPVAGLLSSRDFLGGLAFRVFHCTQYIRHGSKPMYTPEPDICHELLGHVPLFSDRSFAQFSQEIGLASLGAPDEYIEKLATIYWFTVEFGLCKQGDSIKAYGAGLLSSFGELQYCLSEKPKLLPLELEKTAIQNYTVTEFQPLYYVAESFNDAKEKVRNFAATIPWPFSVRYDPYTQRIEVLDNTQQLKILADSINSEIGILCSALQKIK
The experiment can be described thus: Cell Based Phenylalanine Flux Assay.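 Note: Ten-point dose curve from 2-fold serial dilutions, run in duplicate at 0.5% DMSO final, tracer step used 20 µM sepiapterin and 800 µM labeled phenylalanine.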 Also on record: scale not given here. The settings on record: A375 cells expressing R408W PAH; 24 hrs with compound, then 20 μM sepiapterin and 800 μM 13C9,15N-Phenylalanine for 4 hours; 13C-Tyrosine in media by LC-MS; average where tested multiple times.
With `Cc1cccn2nc(C3c4nc[nH]c4CCN3C(=O)c3ccnn3C(C)C)cc12` (stereo not drawn), the AC50 result is on record as “E, E”.

For the compound `COc1cccn2nc(C3c4nc[nH]c4CCN3C(=O)c3ccnn3C(F)(F)F)cc12` (stereo not drawn), the AC50 entry was “E, E”.

The experiment is the same for the next values; noted with them: A375 cells expressing R408W PAH; 24 hrs with compound, then 20 μM sepiapterin and 800 μM 13C9,15N-Phenylalanine for 4 hours; 13C-Tyrosine in media by LC-MS; average where tested multiple times; read-out: AC50.
Turning to `Nc1cnc(N2CCc3[nH]cnc3C2c2cc3cccc(C(F)F)n3n2)nc1` (stereo not drawn), the AC50 is > 5000 nM.

As to `CC1(c2nnc(N3CCc4[nH]cnc4C3c3cc4ccccn4n3)o2)CC1` (stereo not drawn), the AC50 was 1000 to 5000 nM.

`FC(F)(F)c1cccn2nc([C@@H]3c4nc[nH]c4CCN3c3nnc(-c4cccnc4)o3)cc12` (single isomer, unassigned): the AC50 lay in the range of 1000 to 5000 nM. As to `CC(C)c1cccn2nc([C@@H]3c4nc[nH]c4CCN3c3nnc(-c4ncccn4)o3)cc12` (single isomer, unassigned), the AC50 lay in the range of 1000 to 5000 nM. On the same count and under the same terms, the figure for `O=C(Cc1cnn2ccccc12)N1CCc2[nH]cnc2[C@H]1c1cc2ccccn2n1` (single isomer, unassigned) is 1000 to 5000 nM. Still for that read-out and setting: the figure for `CC(C)(F)c1nnc(C(=O)N2CCc3[nH]cnc3C2c2cc3cc(C(F)(F)F)ccn3n2)o1` (stereo not drawn) is 1000 to 5000 nM; for `Cc1cccc2cc([C@@H]3c4nc[nH]c4CCN3C(=O)c3nnc(C(C)(C)O)o3)nn12` (single isomer, unassigned) it is 1000 to 5000 nM.

Staying with this experiment, now noted: A375 cells expressing human R408W PAH; 24 hrs compound incubation; 13C-Tyrosine by LC-MS; average where tested multiple times; read-out: AC50.
`O=C(c1nnc(-c2ccccn2)o1)N1CCc2[nH]cnc2[C@@H]1c1cc2cccc(Cl)n2n1` [Example 1043, (R)-(4-(7-chloropyrazolo [1,5-a]pyridin-2-yl)-6,7-dihydro-1H-imidazo[4,5-c]pyridin-5(4H)-yl)(5-(pyridin-2-yl)-1,3,4-oxadiazol-2-yl) methanone]: the AC50 was > 5000 nM.

For `Cn1ccc(-c2nnc(C(=O)N3CCc4[nH]cnc4[C@@H]3c3cc4c(C(F)F)cccn4n3)o2)n1` [Example 1353, (R)-(4-(4-(difluoromethyl)pyrazolo[1,5-a]pyridin-2-yl)-6,7-dihydro-1H-imidazo [4,5-c]pyridin-5(4H)-yl)(5-(1-methyl-1H-pyrazol-3-yl)-1,3,4-oxadiazol-2-yl)methanone], the AC50 was > 5000 nM. Still for that read-out and setting: with `O=C(c1nnc(-c2cnccn2)o1)N1CCc2[nH]cnc2[C@H]1c1cc2c(Cl)cccn2n1` [Example 1332, (S)-(4-(4-chloropyrazolo [1,5-a]pyridin-2-yl)-6,7-dihydro-1H-imidazo[4,5-c]pyridin-5(4H)-yl)(5-(pyrazin-2-yl)-1,3,4-oxadiazol-2-yl)methanone] the figure was < 500 nM; with `Cc1cccn2nc([C@@H]3c4nc[nH]c4CCN3C(=O)c3nnc(C(C)(C)C)o3)cc12` [Example 1022, (S)-(5-(tert-butyl)-1,3,4-oxadiazol-2-yl)(4-(4-methylpyrazolo[1,5-a]pyridin-2-yl)-6,7-dihydro-1H-imidazo[4,5-c]pyridin-5(4H)-yl)methanone], < 500 nM. The same measure, in the same setting: the figure for `O=C(c1oc(C2(O)CC2)nc1C(F)F)N1CCc2[nH]cnc2[C@@H]1c1cc2c(Cl)cccn2n1` [Example 705, (R)-(4-(4-chloropyrazolo [1,5-a]pyridin-2-yl)-6,7-dihydro-1H-imidazo[4,5-c]pyridin-5(4H)-yl)(4-(difluoromethyl)-2-(1-hydroxycyclopropyl)oxazol-5-yl)methanone] is 1000 to 5000 nM. For the compound `O=C(CC1CC(F)C1)N1CCc2[nH]cnc2[C@H]1c1cc2ccccn2n1` (stereo partly drawn) [Example 636, (S)-2-(3-fluorocyclobutyl)-1-(4-(pyrazolo[1,5-a]pyridin-2-yl)-6,7-dihydro-1H-imidazo [4,5-c]pyridin-5(4H)-yl)ethenone], the AC50 was < 500 nM. Same read-out and setting: with `Cc1cccc2cc([C@@H]3c4nc[nH]c4CCN3C(=O)c3oc([C@@H](C)O)nc3C(F)F)nn12` [Example 1164, (4-(difluoromethyl)-2-((R)-1-hydroxyethyl)oxazol-5-yl)((S)-4-(7-methylpyrazolo [1,5-a]pyridin-2-yl)-6,7-dihydro-1H-imidazo[4,5-c]pyridin-5(4H)-yl)methanone] the figure was < 500 nM; with `Cn1cc(-c2nnc(C(=O)N3CCc4[nH]cnc4[C@@H]3c3cc4c(F)cccn4n3)o2)cn1` [Example 729, (R)-(4-(4-fluoropyrazolo[1,5-a]pyridin-2-yl)-6,7-dihydro-1H-imidazo[4,5-c]pyridin-5(4H)-yl)(5-(1-methyl-1H-pyrazol-4-yl)-1,3,4-oxadiazol-2-yl)methanone], > 5000 nM. The same measure, in the same setting: with `Cc1cccn2nc([C@@H]3c4nc[nH]c4CCN3C(=O)c3cc(C(F)F)nn3C)cc12` [Example 867, (S)-(3-(difluoromethyl)-1-methyl-1H-pyrazol-5-yl)(4-(4-methylpyrazolo[1,5-a]pyridin-2-yl)-6,7-dihydro-1H-imidazo[4,5-c]pyridin-5(4H)-yl)methanone] the figure was < 500 nM; with `Cc1ncccc1-c1nnc(C(=O)N2CCc3[nH]cnc3[C@@H]2c2cc3c(Cl)cccn3n2)o1` [Example 1357, (R)-(4-(4-chloropyrazolo [1,5-a]pyridin-2-yl)-6,7-dihydro-1H-imidazo[4,5-c]pyridin-5(4H)-yl)(5-(2-methylpyridin-3-yl)-1,3,4-oxadiazol-2-yl)methanone], > 5000 nM.

Take `O=C(CC1CC(F)C1)N1CCc2[nH]cnc2[C@@H]1c1cc2ccccn2n1` (stereo partly drawn) [Example 637, (R)-2-(3-fluorocyclobutyl)-1-(4-(pyrazolo[1,5-a]pyridin-2-yl)-6,7-dihydro-1H-imidazo [4,5-c]pyridin-5(4H)-yl)ethanone]: the AC50 lay within 1000 to 5000 nM.

The experiment is the same for the next values; noted with them: A375 cells expressing human R408W PAH; 24 hrs with compound, then sepiapterin and 13C9,15N-Phenylalanine for 4 hours; 13C-Tyrosine by LC-MS; average where tested multiple times; read-out: AC50.
In the case of `O=C(c1nnc(-c2ccccn2)s1)N1CCc2[nH]cnc2[C@H]1c1cc2c(F)cccn2n1` [Example 1968, (S)-(4-(4-fluoropyrazolo [1,5-a]pyridin-2-yl)-1,4,6,7-tetrahydro-5H-imidazo[4,5-c]pyridin-5-yl)(5-(pyridin-2-yl)-1,3,4-thiadiazol-2-yl) methanone], the AC50 was < 500 nM. For `FC(F)(F)c1cccn2nc([C@@H]3c4nc[nH]c4CCN3c3nnc(C4CC4)o3)cc12` [Example 1591, (S)-2-cyclopropyl-5-(4-(4-(trifluoromethyl)pyrazolo[1,5-a]pyridin-2-yl)-6,7-dihydro-1H-imidazo[4,5-c]pyridin-5(4H)-yl)-1,3,4-oxadiazole], the AC50 was 500 to 1000 nM. Still for that read-out and setting: the figure for `O=C([C@@H]1CC1(F)F)N1CCc2[nH]cnc2[C@H]1c1cc2c(F)cccn2n1` [Example 2030, ((S)-2,2-difluorocyclopropyl) ((S)-4-(4-fluoropyrazolo[1,5-a]pyridin-2-yl)-1,4,6,7-tetrahydro-5H-imidazo[4,5-c]pyridin-5-yl)methanone] is < 500 nM. Regarding `CC(C)c1cccn2nc([C@H]3c4nc[nH]c4CCN3c3nnc(-c4cnccn4)o3)cc12` [Example 2176, (R)-2-(4-(4-isopropylpyrazolo [1,5-a]pyridin-2-yl)-1,4,6,7-tetrahydro-5H-imidazo [4,5-c]pyridin-5-yl)-5-(pyrazin-2-yl)-1,3,4-oxadiazole], the AC50 was > 5000 nM. Same read-out and setting: the figure for `CC(C)c1cccn2nc([C@@H]3c4nc[nH]c4CCN3c3nnc(-c4cccnn4)o3)cc12` [Example 2512, (S)-2-(4-(4-isopropylpyrazolo [1,5-a]pyridin-2-yl)-1,4,6,7-tetrahydro-5H-imidazo [4,5-c]pyridin-5-yl)-5-(pyridazin-3-yl)-1,3,4-oxadiazole] is 1000 to 5000 nM; for `COc1ccc(-c2nnc(C(=O)N3CCc4[nH]cnc4[C@H]3c3cc4c(C(F)F)cccn4n3)o2)nc1` [Example 1424, (S)-(4-(4-(difluoromethyl)pyrazolo[1,5-a]pyridin-2-yl)-6,7-dihydro-1H-imidazo [4,5-c]pyridin-5(4H)-yl)(5-(5-methoxypyridin-2-yl)-1,3,4-oxadiazol-2-yl)methanone] it is < 500 nM.

`O=C(c1cnn2cc(-c3ccccn3)ccc12)N1CCc2[nH]cnc2[C@H]1c1cc2ccccn2n1` [Example 1416, (S)-(4-(pyrazolo[1,5-a]pyridin-2-yl)-6,7-dihydro-1H-imidazo[4,5-c]pyridin-5(4H)-yl)(6-(pyridin-2-yl)pyrazolo[1,5-a]pyridin-3-yl)methanone]: the AC50 is < 500 nM. The same measure, in the same setting: the figure for `O=C(c1nnc(-c2ccccn2)o1)N1CCc2[nH]cnc2[C@@H]1c1cc2cccc(C(F)F)n2n1` [Example 1420, (R)-(4-(7-(difluoromethyl)pyrazolo[1,5-a]pyridin-2-yl)-6,7-dihydro-1H-imidazo [4,5-c]pyridin-5(4H)-yl)(5-(pyridin-2-yl)-1,3,4-oxadiazol-2-yl)methanone] is > 5000 nM; for `O=C(c1nnc(-c2cnn(C(F)(F)F)c2)o1)N1CCc2[nH]cnc2[C@@H]1c1cc2c(F)cccn2n1` [Example 1541, (R)-(4-(4-fluoropyrazolo [1,5-a]pyridin-2-yl)-6,7-dihydro-1H-imidazo[4,5-c]pyridin-5(4H)-yl)(5-(1-(trifluoromethyl)-1H-pyrazol-4-yl)-1,3,4-oxadiazol-2-yl)methanone] it is 1000 to 5000 nM. For `CC(C)c1nnc(C(=O)N2CCc3[nH]cnc3[C@@H]2c2cc3c(F)cccn3n2)o1` [Example 1453, (R)-(4-(4-fluoropyrazolo [1,5-a]pyridin-2-yl)-6,7-dihydro-1H-imidazo[4,5-c]pyridin-5(4H)-yl)(5-isopropyl-1,3,4-oxadiazol-2-yl)methanone], the AC50 is > 5000 nM.

As usually defined, the AC50 is the concentration giving half of the maximal activity seen.
